Laboratory results as given in patent publication US7863325B2, “Crystalline genistein sodium salt dihydrate” (Axcentua Pharmaceuticals AB, priority 2008, dated 2011).
Read-outs that look alike come from different tables or passages of the source.

Tests used:
[1] = Hydration study (IPA/water mixtures, XRPD and TGA); format: physicochemical; settings: IPA/water mixtures (3%, 5% and 10%), ca. 48 hours, ambient temperature
Experimental: Approximately 100 mg of crystalline genistein sodium salt dihydrate were placed in ca. 500 μL IPA/water mixtures (3%, 5% and 10%) at the water level. Each mixture was agitated for ca. 48 hours at ambient temperature and then filtered to recover the solid for XRPD and TGA studies.

[2] = SuperSol 1000 kinetic and equilibrium solubility assay
[3] = Solubility in different solvents (aliquot addition until dissolution); format: physicochemical
Experimental: Solubility in different solvents: Solubility in different organic solvents was measured using the following protocol. Approximately 25 mg portions of genistein and crystalline genistein sodium dihydrate salt were placed in 48 different vials, separately. 5 volume aliquots of each solvent were added exclusively to a vial. Between each addition, the mixture was checked for dissolution and if no dissolution was apparent, the procedure was continued until dissolution was observed or when 50 volumes had been added.

[4] = rat
Experimental: Preparation of Dosing Solutions for In-Vivo Study: Genistein and Crystalline genistein sodium salt dihydrate were stored at room temperature under desiccant and protected from light. The dosing solutions were prepared fresh from powders on the day of dosing. The dosing solution for intravenous administration (IV) was prepared at 1 mg/mL (free acid) in 50:50 DMSO:saline. The dosing solutions for intraduodenal administration (ID) were prepared at 2 mg/mL (genistein free acid) in a 0.2% sodium carboxymethyl cellulose (Na CMC) solution in water.
Animal Dosing: The pharmacokinetics of genistein was evaluated in fasted male Sprague-Dawley rats. Each animal was fitted with a jugular vein cannula (JVC) for blood sampling. Animals intended for intravenous dosing were fitted with an additional JVC for dose administration. Animals intended for intraduodenal dosing were fitted with an intraduodenal cannula (IDC) for dose administration. Surgically modified animals were housed one per cage. All animals were supplied with a commercial rodent diet (LabDiet, Certified Rodent Diet #5002) ad libitum prior to study initiation. […] Water was supplied ad libitum.
Intraduodenal dosing solutions were administered as a single bolus dose at time zero on the day of dosing. Intravenous doses were administered as a slow IV injection over approximately 1 minute. Blood sampling times began at the end of the infusion. Blood samples were collected.
Each blood sample was collected from the rats via a jugular vein cannula and placed into chilled polypropylene tubes containing sodium heparin as an anticoagulant. Samples were centrifuged at a temperature of 4° C. and at a speed of 13,000 rpm for 5 minutes. Samples were maintained chilled throughout processing. Each plasma sample was split into two aliquots. The first aliquot contained 50 μL of plasma. All remaining plasma volume was used for the second aliquot. Samples were then placed on dry ice, and stored in a freezer set to maintain −60° C. to −80° C. The total concentration of genistein in plasma samples were analyzed by LC-MS/MS after an overnight incubation with glucuronidase/arylsulfatase enzyme mixture. Pharmacokinetic parameters were calculated using the WinNonlin software.
Analysis of Plasma Samples: An LC-MS/MS analytical method for the determination of genistein in rat plasma was developed. Prior to sample analysis, a standard curve was analyzed to determine the specificity, range, and linearity of the method. Total genistein in plasma samples was determined by pre-treating all samples with β-glucuronidase/arylsulfatase enzymes and incubating prior to analysis. Incubation with the enzyme mix deconjugated any glucuronide or sulfate metabolites of genistein back to the parent form.
Acceptance Criteria for LC-MS/MS Analysis: One standard curve was dispersed throughout each analytical run. At least ⅝ of the standards must be accurate to within ±20%, except at the LLOQ where ±25% is acceptable, in order for the run to pass.
Pharmacokinetic Analysis: Individual plasma concentrations versus time data for genistein were subjected to non-compartmental analysis using the pharmacokinetic program WinNonlin v. […] Plasma concentrations below the limit of quantitation (10 ng/mL) were assigned a value of zero for PK analysis only.

[5] = Gravimetric vapor sorption (GVS); format: physicochemical
Experimental: Gravimetric Vapor Sorption (GVS): Approximately 15 mg of sample was placed into a wire-mesh vapor sorption balance pan and loaded into an SMS intrinsic vapor sorption balance supplied (Surface Measurement Systems Instruments). The sample was then dried by maintaining a 0% humidity environment until no further weight change was recorded. Subsequently, the sample was then subjected to a ramping profile from 0-90% RH at 10% RH increments, maintaining the sample at each step until equilibration had been attained (99.5% step completion). Upon reaching equilibration, the % RH within the apparatus was ramped to the next step and the equilibration procedure repeated. After completion of the sorption cycle, the sample was then dried using the same procedure. The weight change during the sorption/desorption cycles were then monitored, allowing for the hygroscopic nature of the sample to be determined.
However, between 20 and 70 RH % (typical working range of material) only ca. 2% moisture change was observed.

[6] = Stability study (80° C., 40° C./75 RH %, light; XRPD and colour); format: physicochemical
Experimental: Sample stability was tested at 80° C. for 7 days and at 40° C./75 RH % for 7 days. Observations such as color change were noted after 7 days and XRPD of samples were taken after 7 days to investigate any solid form change.

[7] = Disproportionation study (slurry in distilled water, XRPD, pH); format: physicochemical; settings: 50 mg slurried in 250 μL distilled water ca. 48 hours
Experimental: A 50 mg sample of crystalline genistein sodium salt dihydrate was slurried in 250 μL distilled water for ca. 48 hours and then checked by XRPD for disproportionation. The pH of the supernatant was also measured using a Corning 240 pH meter. […] The pH of the supernatant after slurrying was 7.1.

[8] = Aqueous solubility (slurry shaken ca. 24 hours, filtered, HPLC); format: physicochemical; settings: aqueous buffer, thermodynamic from solid
Experimental: Aqueous Solubility: Aqueous solubility was measured using the following protocol. Slurries of genistein and of crystalline genistein sodium dihydrate salt were made up in aqueous media in which pH was set at 4.5, 6.7, and 7.5, each slurry was shaken at ambient temperature for ca. 24 hours and then filtered using a 0.2 μm filter into a clean vial. The saturated solutions were then diluted and analyzed for API (genistein) content using N-Ac-DL-Methionine on a Chirobiotic T HPLC column and UV detector set at λmax=270 nm. The mobile phase was acetonitrile/water run in isocratic mode over a 30 minute period. The results are presented in Table 3, (BDL=below detection limits).

[9] = intravenous, 1 mg/kg, mean ± SD, n = 3

O.O.O=c1c(-c2ccc(O)cc2)coc2cc(O)cc(O)c12.[Na] [genistein sodium salt dihydrate]
Hydrate formation (XRPD, TGA) [1]: no further hydrates | C[Eq] (late kinetic solubility) ([2]; EtOH 100%): 11.20 mg×1^−1 | C[MSS] (early kinetic solubility) ([2]; EtOH 100%): 10.85 mg×1^−1 | ISI (Intrinsic Solubility Index) ([2]; EtOH 100%): 0.07 | ISI / late solubility profile, rating in words ([2]; EtOH 100%): poor | KSR (Kinetic Solubility ratio) ([2]; EtOH 100%): 0.97 | KSR, rating in words ([2]; EtOH 100%): excellent | MSS (Maximum Solubility Speed) ([2]; EtOH 100%): 36.90 mg×1^−1×min^−1 | MSS, rating in words ([2]; EtOH 100%): excellent | ΔC [C, − CMSS] ([2]; EtOH 100%): 0.35 mg×1^−1 | C[Eq] (late kinetic solubility) ([2]; EtOH/dH2O 50/50 (vol/vol)): 17.40 mg×1^−1 | C[MSS] (early kinetic solubility) ([2]; EtOH/dH2O 50/50 (vol/vol)): 14.67 mg×1^−1 | ISI (Intrinsic Solubility Index) ([2]; EtOH/dH2O 50/50 (vol/vol)): 0.60 | ISI / late solubility profile, rating in words ([2]; EtOH/dH2O 50/50 (vol/vol)): good-to-acceptable | KSR (Kinetic Solubility ratio) ([2]; EtOH/dH2O 50/50 (vol/vol)): 0.84 | KSR, rating in words ([2]; EtOH/dH2O 50/50 (vol/vol)): excellent | MSS (Maximum Solubility Speed) ([2]; EtOH/dH2O 50/50 (vol/vol)): 20.66 mg×1^−1×min^−1 | MSS, rating in words ([2]; EtOH/dH2O 50/50 (vol/vol)): excellent | ΔC [CEq − CMSS] ([2]; EtOH/dH2O 50/50 (vol/vol)): 2.73 mg×1^−1 | C[Eq] (late kinetic solubility) ([2]; EtOH/dH2O 75/25 (vol/vol)): 15.86 mg×1^−1 | C[MSS] (early kinetic solubility) ([2]; EtOH/dH2O 75/25 (vol/vol)): 11.20 mg×1^−1 | ISI (Intrinsic Solubility Index) ([2]; EtOH/dH2O 75/25 (vol/vol)): 1.26 | ISI / late solubility profile, rating in words ([2]; EtOH/dH2O 75/25 (vol/vol)): excellent | KSR (Kinetic Solubility ratio) ([2]; EtOH/dH2O 75/25 (vol/vol)): 0.71 | KSR, rating in words ([2]; EtOH/dH2O 75/25 (vol/vol)): excellent | MSS (Maximum Solubility Speed) ([2]; EtOH/dH2O 75/25 (vol/vol)): 37.33 mg×1^−1×min^−1 | MSS, rating in words ([2]; EtOH/dH2O 75/25 (vol/vol)): excellent | ΔC [CEq − CMSS] ([2]; EtOH/dH2O 75/25 (vol/vol)): 4.66 mg×1^−1 | solubility ([3]; aqueous with cosolvent or surfactant or cyclodextrin, thermodynamic from solid, Acetone/Water (50:50)): 69.6 mg/mL | solubility ([3]; organic solvent or mixture, thermodynamic from solid, 1,4-dioxane): < 10.6 mg/mL | solubility ([3]; organic solvent or mixture, thermodynamic from solid, 1-Butanol (BuOH)): 19.3 mg/mL | solubility ([3]; organic solvent or mixture, thermodynamic from solid, 2-Propanol (IPA)): < 10.2 mg/mL | solubility ([3]; organic solvent or mixture, thermodynamic from solid, Acetone): < 10.2 mg/mL | solubility ([3]; organic solvent or mixture, thermodynamic from solid, Acetone/IPA (50:50)): 20.2 mg/mL | solubility ([3]; organic solvent or mixture, thermodynamic from solid, Acetonitrile (MeCN)): < 10.4 mg/mL | solubility ([3]; organic solvent or mixture, thermodynamic from solid, Cyclohexane): < 10.9 mg/mL | solubility ([3]; organic solvent or mixture, thermodynamic from solid, Dichloromethane (DCM)): < 10.8 mg/mL | solubility ([3]; organic solvent or mixture, thermodynamic from solid, Diisopropylether (DIPE)): < 9.7 mg/mL | solubility ([3]; organic solvent or mixture, thermodynamic from solid, Dimethyl sulfoxide (DMSO)): > 235 mg/mL | solubility ([3]; organic solvent or mixture, thermodynamic from solid, Ethanol (EtOH)): 98 mg/mL | solubility ([3]; organic solvent or mixture, thermodynamic from solid, Heptane): < 9.9 mg/mL | solubility ([3]; organic solvent or mixture, thermodynamic from solid, Methanol (MeOH)): < 8.8 mg/mL | solubility ([3]; organic solvent or mixture, thermodynamic from solid, Methyl acetate (MeOAc)): < 10.2 mg/mL | solubility ([3]; organic solvent or mixture, thermodynamic from solid, Methyl isobutyl ketone (MIBK)): < 9 mg/mL | solubility ([3]; organic solvent or mixture, thermodynamic from solid, Methylethyl ketone (MEK)): < 9.2 mg/mL | solubility ([3]; organic solvent or mixture, thermodynamic from solid, N-Methyl-2-pyrrolidinone (NMP)): 90.4 mg/mL | solubility ([3]; organic solvent or mixture, thermodynamic from solid, N-N-dimethylformamide (DMF)): > 218 mg/mL | solubility ([3]; organic solvent or mixture, thermodynamic from solid, Octanol): < 11 mg/mL | solubility ([3]; organic solvent or mixture, thermodynamic from solid, Tetrahydrofuran (THF)): < 10.4 mg/mL | solubility ([3]; organic solvent or mixture, thermodynamic from solid, Toluene): < 9.9 mg/mL | solubility ([3]; organic solvent or mixture, thermodynamic from solid, Toluene/Dioxane (50:50)): < 9.7 mg/mL | solubility ([3]; organic solvent or mixture, thermodynamic from solid, tert-Butylmethyl ether (TBME)): < 9.2 mg/mL | Time after ID dosing at which Cmax was observed ([4]; intraduodenal dosing, mean profile (FIG. 13)): ≤ 15 min | AUClast ([4]; intraduodenal, 20 mg/kg, mean ± SD, n = 3): 1161 ± 358 kg·ng·h/mL/mg | Pharmacokinetic profile following IV dosing, compared between the two forms ([4]; intravenous, 1 mg/kg): not significantly different | AUClast [4, 9]: 2129 ± 331 kg·ng·h/mL/mg | AUC∞ [4, 9]: 2189 ± 356 kg·ng·h/mL/mg | Maximum water adsorbed (GVS) ([5]; 0-90% RH cycle): 45 wt % | Moisture change (GVS) ([5]; between 20 and 70 RH %): ca. 2% | Solid form stability (XRPD, colour) ([6]; 40° C./75 RH % for 7 days): no change | Solid form stability (XRPD, colour) ([6]; 80° C. for 7 days): slight loss in crystallinity | Light stability ([6]; 7 day light stability tests): no change in color or solid form | Disproportionation (XRPD) [7]: No signs of disproportionation | pH of the supernatant after slurrying [7]: 7.1 | solubility ([8]; Water/slurry pH 4.5, ambient temperature): 0.136 mg/mL | solubility ([8]; Water/slurry pH 6.7, ambient temperature): 0.707 mg/mL | solubility ([8]; Water/slurry pH 7.5, ambient temperature): 0.65 mg/mL
